In patent US20080125488A1, “Lactate Containing Pharmaceutical Composition and Uses Thereof” (priority 2003, published 2008):

Experiments:
[1] = system: patients suffering from brain injury (brain trauma) with increased intracranial pressure; assay: Treatment of increased intracranial pressure caused by brain trauma; format: in vivo, human
Protocol: For this purpose, the composition of the invention or the mannitol was administered (infused) to a group of each twelve patients and the ICP was measured every 15 minutes.
The results of this study, in which 12 patients were either treated with mannitol or the hypertonic lactate solution of the invention, are shown in FIGS. 1 to 4 as well as in Tables 2 to 5.

isolated rat hearts = assay: In vitro model for ischemia (perfused isolated rat hearts); details: 5 mM lactate
Protocol: In order to determine the suitability of lactate for the treatment of conditions such as ischemia-reperfusion, isolated rat harts were perfused either with perfusion medium containing 5 mM lactate or with a perfusion medium (control) containing 0.2 mM of hexanoic acid and 5.5 mM glucose in accordance with the protocol described by Garnier A. et al., J Mol Cell Cardiol 1996, 28, 1671-1682.

For OC[C@@H](O)[C@@H](O)[C@H](O)[C@H](O)CO [mannitol], the CPP after treatment ([1]; after treatment) was 73.2 ± 2.4 mm Hg, the ICP after treatment ([1]; after treatment) was 25.7 ± 1.7 mm Hg and the CPP before treatment ([1]; before treatment) was 67.6 ± 2.2 mm Hg. For the same compound, the ICP before treatment ([1]; before treatment, mean ± sem) was 31 ± 1.8 mm Hg, the number of survival ([1]; brain trauma patients, survivors out of group) was 7 out of 11 and the “number of successful treatment (only first treatment)” value ([1]; first treatment only) was 5 out of 11. For the same compound, the “patients that survived the brain trauma” value ([1]; groups of 12 patients (FIG. 2)) was 7, the “number of successful treatment (all treatments)” value ([1]; out of all ICH episodes treated) was 14 out of 25 and the “number of cross over” value ([1]; patients switched to the other treatment after failure) was 4 out of 11. For the same compound, the “decrease in the intracranial pressure” value ([1]; within the first 30 minutes after the treatment (FIG. 1)) was “about 20%” and the “ICP as share of the initial untreated ICP” value ([1]; within the next 3.5 hours after the treatment (rebound, FIG. 1)) was “about 90%”.
CC(O)C(=O)O (centres unmarked) [lactate] was tested, and the rate pressure product (isolated rat hearts; 40 minutes perfusion after 40 minutes ischemia, compared to control (FIG. 9A)) was “significantly higher and prolonged increase”, the heart rate (isolated rat hearts; 40 minutes perfusion after 40 minutes ischemia, compared to control (FIG. 9C)) was “significantly higher and prolonged increase” and the diastolic pressure (isolated rat hearts; compared to control (FIG. 9B)) was “significantly decreased”.
